Laboratory results published in patent US20250051758A1, “FolA Selection Assay to Identify Strains with Increased Soluble Target Protein Expression” (ABSCI CORPORATION, priority 2021, published 2025).

Test system: E. coli harboring plasmid encoding mCherry-FolA fusion under the control of pBAD promoter

Row | Structure (SMILES) | Inhibition of growth by sulfamethoxazole | Sulfamethoxazole concentration at which sensitivity to trimethoprim is restored [µg/mL] | Resistance of cells to trimethoprim | Synergy of trimethoprim with sulfamethoxazole
1 | Cc1cc(NS(=O)(=O)c2ccc(N)cc2)no1 [sulfamethoxazole] | did not inhibit growth | > 2 | – | –
2 | COc1cc(Cc2cnc(N)nc2N)cc(OC)c1OC [trimethoprim] | – | – | highly resistant | strong synergy
